Data set [1] is described as follows: Determination of brain/plasma ratios for NAD0241 and comparison with NAD0180 (Example 56E). It counts as in vivo, Wistar Han Rats. To be noted: rats, 5 mg/kg i.v., 1 hour post-administration. The method, then:
Application of Compound: 5 mg/kg of NAD 241 and NAD0180 each in a vehicle of 1.5 mL/kg PEG 400 Macrogol Ph. Eur. were applied i.v. through the femoral vein to two groups (n=3) of Wistar Han Rats weighing between 240-270 g. The application was performed under anaesthesia, initiated with 3.5% Isofluorane/O2, then maintained at 1% during compound application and suture of the vein. 200 μL of local anaesthetic lidocaine were locally administered. 1 hour after application of the compound 200 μl of blood were obtained by tail vein incision. Immediately following the blood sampling rats were terminated by decapitation after brief CO2 anaesthesia Brains were resected and weighed. Plasma was obtained by centrifugation of the tail vein blood at 13000 g for 20 minutes at 4° C. […]
Establishment of Extraction Recovery and Standard Curve for NAD0241 and NAD0180: 100 μL of plasma or 0.5 g brain tissue homogenate in saturated NaCl, obtained from control rats, were spiked with NAD0241 and NAD0180, respectively, to produce concentrations ranging from 1 ng/mL to 5 μg/mL. […] Quantitative analysis of the extracts was performed by HPLC with fluorescence detection. […] Fluorescence detection and quantitation by peak area was performed with a G1321A (Agilent Tech 1100 series) detector at excitation and emission wavelengths of 317 nm and 542 nm, respectively, for NAD0241, and 315 nm and 565 nm for NAD0180. […]

The target in the next data set is T1, GSK3β (Homo sapiens, UniProt P49841).
T1 construct: purchased Upstate Discovery
T1 sequence (P49841 whole entry, species assumed): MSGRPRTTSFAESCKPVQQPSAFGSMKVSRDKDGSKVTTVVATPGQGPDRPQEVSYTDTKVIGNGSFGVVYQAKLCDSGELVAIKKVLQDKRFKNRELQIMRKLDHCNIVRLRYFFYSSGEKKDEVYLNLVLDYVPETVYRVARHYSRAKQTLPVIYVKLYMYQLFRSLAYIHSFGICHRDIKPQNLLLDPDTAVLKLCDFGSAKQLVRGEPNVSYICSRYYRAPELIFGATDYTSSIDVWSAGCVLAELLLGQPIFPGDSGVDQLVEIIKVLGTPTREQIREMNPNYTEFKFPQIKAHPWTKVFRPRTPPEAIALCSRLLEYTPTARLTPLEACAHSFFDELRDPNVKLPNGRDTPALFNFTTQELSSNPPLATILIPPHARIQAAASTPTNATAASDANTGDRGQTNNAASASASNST
Description: Glycogen Synthase Kinase 3β inhibition assay (GSK3β). It is filed as biochemical. To be noted: 10 μM compound. The method, then:
The GSK3β kinase activity assay utilizes a radioactivity-based format in a 96-well PCR plate with radioactive readout. The GSK3 β activity was assayed in a 25 μL assay mixture containing 8 mM HEPES (pH 7.0), 250 μM ATP, 0.2 mM EDTA (pH 8), 2% DMSO, 250 ng/mL Myelin Basic Protein (MBP, Sigma M-1891), and 12 ng/mL GSK3β (Upstate Discovery, specific activity=607 nmol/min*GS2 peptide, concentration of 6.05 mg/mL). Compounds were screened for inhibition of the GSK3β kinase activity at a concentration of 10 μM. The kinase reaction was allowed to proceed at 37° C. for 30 minutes, then the reaction was stopped by addition of 5 μL of 0.5M EDTA (pH 8).

The inhibition is the change of the read-out against control, counted positive when it falls. Read a low inhibition as little suppression.

A value given as a limit tells only on which side of the number the result lay.

For the molecule `NC(=O)[C@]1(N)CC2CC1n1c3ccccc3c3c4c(c5c6ccccc6n2c5c31)C(=O)NC4=O` (mixture of isomers) [Compound 5], the brain/plasma ratio fold difference vs NAD0180 at 1 h in data set [1] (Wistar Han, rat, brain and plasma, iv) was above 30 fold. The “ability to pass the BBB / blood-brain barrier penetration” value in data set [1] (NAD0241 vs NAD0180) is reported as “pass more readily the BBB”. Besides, testing at 10 µM against GSK3β gave an inhibition of 100%.

(Values after patent US20070149481A1, “N,n-bridged, nitrogen-substituted carbacyclic indolocarbazoles as protein kinase inhibitors” (priority 2002, published 2007).)
